Assay results reported in article PMC4222048 (European journal of pharmacology, 2014).
Residue numbers refer to the chain shown, from its start. Structures can show the parent of a compound that is named as a salt. Where two headings read alike, the source gives them in different places.

Assays:
[1] = biological target: T1, human K2P18.1 (Homo sapiens, UniProt Q7Z418); experiment: Thallium-flux assay, HEK293 cells transfected with human K2P18.1; format: cell-based; conditions: for K2P18.1 Minimum Activity: fitted minimum, fixed at 0 where indicated
T1 sequence (Q7Z418 1-384): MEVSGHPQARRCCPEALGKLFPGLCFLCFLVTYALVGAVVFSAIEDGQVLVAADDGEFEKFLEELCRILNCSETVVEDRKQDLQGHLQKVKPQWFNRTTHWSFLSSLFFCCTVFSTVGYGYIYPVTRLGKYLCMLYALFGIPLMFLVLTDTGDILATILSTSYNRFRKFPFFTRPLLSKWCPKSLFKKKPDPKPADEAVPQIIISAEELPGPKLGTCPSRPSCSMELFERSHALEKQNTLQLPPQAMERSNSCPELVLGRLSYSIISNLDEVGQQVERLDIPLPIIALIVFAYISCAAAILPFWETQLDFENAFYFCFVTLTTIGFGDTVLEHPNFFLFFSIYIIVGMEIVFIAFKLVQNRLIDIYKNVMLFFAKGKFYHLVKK

[2] = biological target: T2, K2P9.1 (Homo sapiens, UniProt Q9NPC2); experiment: Thallium-flux counter assay, tetracycline induced HEK293-K2P9.1 cells; format: cell-based; conditions: for K2P9.1 Maximum Activity: dash = lack of compound activity
[3] = biological target: T3, F145A/F352A double mutant K2P18.1 (mutK2P18.1) (Homo sapiens, UniProt Q7Z418, F145A/F352A); experiment: Thallium-flux assay, F145A/F352A double mutant K2P18.1 in HEK293 cells; format: cell-based
T3 sequence (Q7Z418 1-384 F145A/F352A): T1 sequence (Q7Z418 1-384) with F145A, F352A

[4] = biological target: T2, K2P9.1; experiment: Whole-cell patch clamp, tetracycline induced HEK293-K2P9.1 cells; format: cell-based
[5] = biological target: T4, wild type K2P18.1 (wtK2P18.1) (Homo sapiens, UniProt Q7Z418); experiment: Whole-cell patch clamp, HEK293-wtK2P18.1; format: cell-based
T4 sequence (Q7Z418 1-384): T1 sequence (Q7Z418 1-384)

[6] = biological target: T3, F145A/F352A double mutant K2P18.1 (mutK2P18.1); experiment: Whole-cell patch clamp, HEK293-mutK2P18.1; conditions: read-out: inhibition of mutK2P18.1 current
[7] = system: F156A/F364A double mutant mouse K2P18.1; conditions: 1 mM; ref Kim et al., 2013; cited from earlier work
[8] = system: mouse K2P18.1; conditions: 1 mM; ref Kim et al., 2013; cited from earlier work
[9] = read-out: K2P9.1 IC50, validation assay, Tl+ flux, HEK293-K2P9.1, highest 30 μM
[10] = read-out: inhibition of wtK2P18.1 current
[11] = read-out: K2P9.1 EC50, validation assay, Tl+ flux, activators, highest 30 μM
[12] = validation assay, Tl+ flux, activators
[13] = read-out: K2P18.1 EC50, validation assay, Tl+ flux, activators, highest 30 μM

T2 sequence (Q9NPC2 whole entry): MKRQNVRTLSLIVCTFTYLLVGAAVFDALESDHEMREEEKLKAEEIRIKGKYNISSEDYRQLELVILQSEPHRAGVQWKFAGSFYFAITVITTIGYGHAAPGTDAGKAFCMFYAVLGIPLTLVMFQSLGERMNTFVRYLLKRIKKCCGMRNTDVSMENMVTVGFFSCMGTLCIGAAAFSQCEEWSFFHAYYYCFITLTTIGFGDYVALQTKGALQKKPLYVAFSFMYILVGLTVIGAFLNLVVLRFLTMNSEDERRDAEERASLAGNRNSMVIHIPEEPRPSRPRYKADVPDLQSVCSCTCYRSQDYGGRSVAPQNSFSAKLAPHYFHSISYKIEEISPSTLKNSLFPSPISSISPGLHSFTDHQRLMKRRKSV

Oligomycin A
K2P18.1 Minimum Activity ([1]; validation assay, Tl+ flux): 52.0 (± 4.21) %

CCCn1c(C)c(C(=O)c2cccc3ccccc23)c2ccccc21 [JWH-015]
IC50 [2, 9]: > 30 µM
K2P18.1 Minimum Activity ([1]; validation assay, Tl+ flux): 26.7 (± 2.1) %

CCOC(=O)N1CCC(=C2c3ccc(Cl)cc3CCc3cccnc32)CC1 [Loratadine]
inhibition at 150 µM ([3]; HEK293, read-out: inhibition against mutK2P18.1): < 50%
lower potency against mutK2P18.1 compared to wtK2P18.1 ([3]; Tl+ flux): at least 50 fold
IC50 [4]: 5.27 ± 1.69 µM
IC50 [5]: 0.49 ± 0.23 µM
selectivity for K2P18.1 over K2P9.1 ([5]; from patch clamp IC50 values): ~ 11 fold
inhibition at 10 µM [5, 10]: 87.5 ± 3.7%
K2P18.1 Minimum Activity ([1]; validation assay, Tl+ flux): 0 (fixed) %
inhibition at 10 µM [6]: 3.9 ± 13.3%

CC1OCC(C[N+](C)(C)C)O1.[I-] (single isomer, unassigned; (+)) [(+)-cis-Dioxolane iodide]
EC50 [2, 11]: > 30 µM
K2P9.1 Maximum Activity [2, 12]: -
EC50 [1, 13]: 0.04 µM
K2P18.1 Maximum Activity [1, 12]: 165 (± 3.00) %

CC(C)c1ccc2c(c1)c(SC(C)(C)C)c(CC(C)(C)C(=O)O)n2Cc1ccc(Cl)cc1 [MK-886]
IC50 [2, 9]: > 30 µM
K2P18.1 Minimum Activity ([1]; validation assay, Tl+ flux): 23.5 (± 6.6) %

C[N+](C)(C)CCOC(N)=O [Carbachol, carbamoylcholine chloride, (2-Hydroxyethyl)trimethyl-ammonium chloride carbamate]
EC50 [2]: > 30 µM
K2P9.1 Maximum Activity [2, 12]: -
EC50 [1]: 1.59 µM
K2P18.1 Maximum Activity [1, 12]: 190 (± 9.96) %

COC(=O)C1=CCCN(C)C1 [Arecoline hydrobromide]
EC50 [2]: > 30 µM
K2P9.1 Maximum Activity [2, 12]: -
EC50 [1]: 2.7 µM
K2P18.1 Maximum Activity [1, 12]: 155 (± 10.8) %

Cn1c(=O)c2c(nc(C=Cc3cccc(Cl)c3)n2C)n(C)c1=O [8-(3-Chlorostyryl)caffeine]
IC50 [2]: > 30 µM
K2P18.1 Minimum Activity ([1]; validation assay, Tl+ flux): 0 (fixed) %

CC[C@H](C)C(=O)O[C@H]1CCC=C2C=C[C@H](C)[C@H](CC[C@@H]3C[C@@H](O)CC(=O)O3)[C@H]21 [Mevastatin]
IC50 [2]: > 30 µM
K2P18.1 Minimum Activity ([1]; validation assay, Tl+ flux): 13.7 (± 7.6) %

Clc1ccc(C(c2ccc(Cl)cc2)n2cc[n+](CC(OCc3ccc(Cl)cc3Cl)c3ccc(Cl)cc3Cl)c2)cc1 (centres unmarked) [Calmidazolium chloride]
IC50 [2]: > 30 µM
K2P18.1 Minimum Activity ([1]; validation assay, Tl+ flux): 0 (fixed) %

CC(=O)OC(C)C[N+](C)(C)C.[Cl-] (stereo not drawn) [Acetyl-beta-methylcholine chloride]
EC50 [2, 11]: > 30 µM
K2P9.1 Maximum Activity [2, 12]: -
EC50 [1, 13]: 0.65 µM
K2P18.1 Maximum Activity [1, 12]: 184 (± 2.38) %

CS(=O)(=O)O.Cc1c(C(=O)c2cccc3ccccc23)c2cccc3c2n1[C@H](CN1CCOCC1)CO3 [(R)-(+)-WIN 55,212–2 mesylate]
IC50 [2, 9]: > 30 µM
K2P18.1 Minimum Activity ([1]; validation assay, Tl+ flux): 25.6 (± 28.3) %

Cc1c(CC(C)(C)C(=O)O)n(Cc2ccc(Cl)cc2)c2ccc(F)cc12 [L-655,240]
IC50 [2, 9]: > 30 µM
K2P18.1 Minimum Activity ([1]; validation assay, Tl+ flux): 0 (fixed) %

C[C@@H]1O[C@H](C[N+](C)(C)C)CS1.[I-] [OXA-22 Iodide]
EC50 [2, 11]: > 30 µM
K2P9.1 Maximum Activity [2, 12]: -
EC50 [1, 13]: 0.06 µM
K2P18.1 Maximum Activity [1, 12]: 166 (± 4.50) %

CCCCCCCCCCCCCC(=O)O[C@@H]1[C@@H](C)[C@@]2(O)[C@@H](C=C(CO)C[C@]3(O)C(=O)C(C)=C[C@@H]23)[C@@H]2C(C)(C)[C@]12OC(C)=O [Phorbol 12-myristate 13-acetate]
EC50 [2]: > 30 µM
K2P9.1 Maximum Activity [2, 12]: -
EC50 [1]: 0.03 µM
K2P18.1 Maximum Activity [1]: 130 (± 2.01) %

Cl.Cl.Fc1ccc(C(OCCN2CCN(CCCc3ccccc3)CC2)c2ccc(F)cc2)cc1 [GBR-12909 dihydrochloride]
IC50 [2, 9]: > 30 µM
K2P18.1 Minimum Activity ([1]; validation assay, Tl+ flux): 0 (fixed) %

COCC(=O)O[C@]1(CCN(C)CCCc2nc3ccccc3[nH]2)CCc2cc(F)ccc2[C@@H]1C(C)C [Mibefradil dihydrochloride]
K2P18.1 Minimum Activity ([1]; validation assay, Tl+ flux): 11.9 (± 2.04) %

CCN(CC)CC(=O)Nc1c(C)cccc1C [lidocaine, 2-Diethylamino-N-(2,6-dimethylphenyl)acetamide]
IC50 [3]: 11600 ± 7100 µM
inhibition at 1000 µM [5, 10]: 65.2 ± 10.4%
inhibition of F156A/F364A double mutant mouse K2P18.1 [7]: 20 ± 15%
IC50 ([1]; IC50 for K2P18.1 inhibition without carbachol, Tl+ flux, absence of carbachol): 3650 ± 380 µM
inhibition at 1000 µM [6]: 18.2 ± 5.8%
inhibition of wild type mouse K2P18.1 [8]: 83 ± 5%

CCCC(=O)NCCc1c2n(c3ccc(OC)cc13)CCCc1ccccc1-2 [K185]
IC50 [2, 9]: > 30 µM
K2P18.1 Minimum Activity ([1]; validation assay, Tl+ flux): 0 (fixed) %

COc1cccc(-c2cc(=O)c3ccccc3o2)c1N [PD98,059]
IC50 [2, 9]: > 30 µM
K2P18.1 Minimum Activity ([1]; validation assay, Tl+ flux): 22.9 (± 23.3) %

CN1CCN(C2Cc3ccccc3Sc3ccc(Cl)cc32)CC1.O=C(O)/C=C\C(=O)O (racemic) [(±)-Octoclothepin maleate]
K2P18.1 Minimum Activity ([1]; validation assay, Tl+ flux): 0 (fixed) %

C/C=C1\C(=O)C[C@H]2[C@@H]3CCC4=CC(=O)CC[C@]4(C)[C@H]3CC[C@]12C [(Z)-Gugglesterone]
IC50 [2, 9]: > 30 µM
K2P18.1 Minimum Activity ([1]; validation assay, Tl+ flux): 0 (fixed) %

OCc1ccc(-c2nn(Cc3ccccc3)c3ccccc23)o1 [YC-1]
IC50 [2, 9]: > 30 µM
K2P18.1 Minimum Activity ([1]; validation assay, Tl+ flux): 0 (fixed) %

C[N+](C)(C)CC#CCN1CCCC1=O [Oxotremorine Methiodide]
EC50 [2]: > 30 µM
K2P9.1 Maximum Activity [2, 12]: -
EC50 [1]: 0.24 µM
K2P18.1 Maximum Activity [1, 12]: 171 (± 4.60) %

CCCCOC(=O)NS(=O)(=O)c1sc(CC(C)C)cc1-c1ccc(Cn2c(CC)nc3c(C)cc(C)nc32)cc1 [L-162,313]
IC50 [2, 9]: > 30 µM
K2P18.1 Minimum Activity ([1]; validation assay, Tl+ flux): 15.5 (± 12.5) %

COc1cc([C@@H]2c3cc4c(cc3[C@H](O)[C@H]3COC(=O)[C@H]23)OCO4)cc(OC)c1OC [Podophyllotoxin]
IC50 [2]: > 30 µM
IC50 [1]: 7.32 µM
K2P18.1 Minimum Activity ([1]; validation assay, Tl+ flux): 0 (fixed) %

Ic1ccccc1CNC1C2CCN(CC2)C1C(c1ccccc1)c1ccccc1.O=C(O)C(=O)O [L-703,606 oxalate]
K2P18.1 Minimum Activity ([1]; validation assay, Tl+ flux): 1.30 (± 9.2) %

COc1cc2c(cc1OC)-c1c/c(=N\c3c(C)cc(C)cc3C)n(C)c(=O)n1CC2 [Trequinsin hydrochloride]
IC50 [2]: > 30 µM
K2P18.1 Minimum Activity ([1]; validation assay, Tl+ flux): 3.90 (± 20.2) %

CN(C)c1cc2c(Nc3ccc4c(cnn4Cc4ccccc4)c3)ncnc2cn1 [GW2974]
K2P18.1 Minimum Activity ([1]; validation assay, Tl+ flux): 0 (fixed) %

O=C(CCCN1CCC2(CC1)C(=O)NCN2c1ccccc1)c1ccc(F)cc1 [Spiperone Hydrochloride]
EC50 [2]: > 30 µM
K2P9.1 Maximum Activity [2, 12]: -
EC50 [1]: 3.02 µM
K2P18.1 Maximum Activity [1, 12]: 161 (± 4.90) %

CC(=O)c1c(O)c(C)c(O)c(Cc2c(O)c3c(c(C(=O)/C=C/c4ccccc4)c2O)OC(C)(C)C=C3)c1O [Rottlerin]
IC50 [2]: > 30 µM
IC50 [1]: 16.2 µM
K2P18.1 Minimum Activity ([1]; validation assay, Tl+ flux): 17.2 (± 42.4) %

Br.CO[C@H]1CC=C2CCN3CCC4=C(CC(=O)OC4)[C@]23C1 [Dihydro-beta-erythroidine hydrobromide]
K2P18.1 Minimum Activity ([1]; validation assay, Tl+ flux): 0 (fixed) %
